Like-named read-outs stand apart in the source and are kept apart here. Numbered stars: 1 amine (or outer) side, 2 acyl side, 3 side chain; on linkers, the order of the positions; unused ones are H or OH. Bridge positions count the residues as written; N and C are the ends. Square brackets hold non-standard residues; d marks the D form. Peptide text beside a SMILES is read from it. CO = O=C([*:1])[*:2]; Nlys = NCCCCNCC(=O)O

One compound from article PMC8717366, “Synthesis and Pharmacological Characterization of Visabron, a Backbone Cyclic Peptide Dual Antagonist of α4β1 (VLA-4)/α9β1 Integrin for Therapy of Multiple Sclerosis” (JACS Au, 2021) can be followed below.

This data set is described as follows: Pharmacokinetics in rats after single i.v. dose. The data set is classed as in vivo, Male Wistar rats. As for the experimental part: Pharmacokinetics of Visabron c (4-4) following iv injection:
Animals-Male Wistar rats (275−300 g, purchased from Harlan, Israel), were used for the surgical procedure. An indwelling cannula was implanted into the right jugular vein, and exteriotrated at the dorsal neck to enable serial systemic blood sampling. After completion of the surgical procedure, the animals were transferred to cages to recover overnight (12−18 h). The animals had free access to water and food during the recovery period and throughout the entire experiment. All surgical and experimental procedures were approved by the Animal Experimental Ethics Committee of the Hebrew University, Hadassah Medical School, Jerusalem. […]
PK Study-A single dose of Visabron c(4-4) in sterile water (300 μL of a 0.514 mg/mL solution, which was equivalent to a final dose of 0.514 mg/kg) was administered i.v. via the indwelling jugular cannula to each rat. Following dose administration, blood samples were taken at pre -dose, 10, 15, 30, 60, 90 and 130-min from the onset of the drug administration (time zero) via the right jugular vein. Approximately […]
350 μL of whole blood was removed, and placed in sodium-heparin containing tubes, and immediately placed in wet ice. Blood was centrifuged at 5322 g for 10 min and a 150 μL aliquot of plasma was transferred to fresh centrifuge tubes and stored at −20 °C pending analysis. PK analysis was performed using standard non-compartmental analysis models in Phoenix WinNonlin®.
Bioanalytical Method for the Detection of Vis-c(4-4) in Rat Plasma: Plasma samples (150 μL) were spiked with metoprolol (20 μL, 10 μg/mL) as an internal standard. 200 μL of ACN was added to each sample and vortex-mixed for 1 min. The samples were then centrifuged (14635 g, 10 min), and the supernatant was transferred to fresh glass tubes and evaporated to dryness (Vacuum Evaporation System, Labconco, Kansas City, MO, USA). The glass tubes were reconstituted in 80 μL of mobile phase and centrifuged a second time (14635 g, 10 min). The amount of the compounds was determined using an HPLC−MS Waters 2695 Separation Module, equipped with a Micromass ZQ detector. The resulting solution was injected (10 μL) into the HPLC sy stem. The system was conditioned as follows :
Xterra MS C18, 3.5 µm, 100A, 100 x 2.1 mm column (Waters), an isocratic mobile phase of ACN : water supplemented with 0.1% formic acid (15:85, v/v) and a flow rate of 0.2 mL/ min at 35 °C was used. The limit of quantification the peptide was 25 ng/mL. Calibration curve was prepared by spiking the standard working stock solution with 15 μL of the different concentrations, 20 μL IS (10 μg/ mL) and 135 μl blank rat plasma in a centrifuge tube on the analysis day . […]
range of 25 ng/Ml to 2.5 μg/mL.
Blood cell counting and biochemistry analyzes : Male C57BL/6 mice were injected intravenously with 0.2 ml of peptide in a dose of 500 mg/kg. No immediate toxicity symptoms were measured a nd thereafter, acute tolerability was observed. Since the hematopoietic system is one of the most sensitive parameters to assess the toxicity of drugs in humans and animals, tail vein blood samples were taken from control (n=3) and 250 mg/kg Visabron c (4-4) injected mice (n=5), after 24 hours from injection and submitted for hematocrit cell counting and biochemical analysis. […]
blood count and electrolytes of special importance are normal liver (ALP, alkaline phosphatase; ALT, alanine transaminase and AST, aspartate transaminase) functions and normal kidney (creatinine and blood urea nitrogen) functions, indicating sufficient organ integrity at the end of the experimental period. The data obtained was similar to hematological parameters reported for this mice strain5, and clearly indicates lack of differences on kidney and liver parameters between the two mice groups.
Visabron c (4-4) safety by in vitro evaluation using PhosphoSens - CSox based kinase assays:
A powerful method was used to measure the activity of recombinant protein kinases using a […]

Regarding `CSCC[C@@H]1NC(=O)[C@H]([C@@H](C)O)NC(=O)CN(C(=O)[C@@H](N)CCCCN)CCCCNC(=O)NCCCCN(CC(=O)N[C@@H](CC(C)C)C(N)=O)C(=O)[C@H](CC(=O)O)NC(=O)[C@H](CC(C)C)NC1=O` [visabron c (4–4)] (H-K[Nlys]TMLD[Nlys]L-NH2; linker 2-7 via CO), the half-life (in general, the time needed for the level to fall by half in the phase considered) (rat, in vivo, iv, 0.515 mg/kg, single i.v. dose 0.515 mg/kg, n = 4) worked out at 24 min. Further, the AUC (in general, concentration integrated over time) (rat, in vivo, iv, plasma, single i.v. dose 0.515 mg/kg, n = 4) was 777 ng·h/mL. For the same compound, the Vd is, setting by setting: (rat, in vivo, iv, read-out: volume of distribution) 0.39 L/kg; (rat, in vivo, iv, single i.v. dose 0.515 mg/kg, n = 4, Table 3, read-out: Vd) 0.381 ± 0.029 L/kg. The clearance (usually the volume of plasma or blood freed of the substance per unit of time) (rat, in vivo, iv, single i.v. dose 0.515 mg/kg, n = 4, noncompartmental analysis) came out at 11.1 ± 0.5 mL/min/kg. The t1/2 (single i.v. dose 0.515 mg/kg, n = 4, 0.515 mg/kg) was 23.8 ± 1.6 min.
